Laboratory results reported in patent US20230146455A1, “TREATMENT OF INFLAMMATORY DISEASES WITH PEPTIDES AND PHARMACEUTICAL COMPOSITIONS” (Yuyu Pharma, Inc., priority 2020, published 2023).
Values joined by “and” are separate entries in the source; they are usually repeats but may differ in a detail not shown here. Equal entries are not always repeated. Where a SMILES comes first, the peptide text is derived from it. [ ]: non-standard residue; d: D form. Hyp = O=C(O)[C@@H]1C[C@@H](O)CN1

Tests used:
IL-8 = assay: Example 9 Luminex, LPS hPBMCs: IL-8; type: cell-based, human
Method: (§1) Treatment Human PBMCs were pretreated with YY-101, YDE-011 and YDE-043 or reference compound; Xiidra® at various concentration (ranging from 1 nM to 100 uM) for 2 h before stimulation. An equal volume of 0.5% DMSO was used as a vehicle control. Then, the cells were treated with LPS at 5 ug/ml. The supernatants from treated cells were harvested at 24 h and placed in a 96 well for Luminex cytokine & chemokine profiling using a Luminex 200 multiplex assay (Luminex; R&D system, USA).
(§2) The main study arm with triplicate wells per group in a 24-well plate: • 1. Blank • 2. PBMC: 0.5% DMSO • 3. PBMC+LPS (5 ug/ml) • 4. PBMC+YY-101 100 uM • 5. PBMC+YY-101 10 uM • 6. PBMC+YY-101 1 uM • 7. PBMC+YY-101 0.1 uM • 8. PBMC+YY-101 0.01 uM • 9. PBMC+LPS (5 ug/ml)+Xiidra®100 uM • 10. PBMC+LPS (5 ug/ml)+Xiidra® 10 uM • 11. PBMC+LPS (5 ug/ml)+Xiidra® 1 uM • 12. PBMC+LPS (5 ug/ml)+Xiidra®0.1 uM • 13. PBMC+LPS (5 ug/ml)+Xiidra®0.01 uM • 14. PBMC+LPS (5 ug/ml)+Xiidra®0.001 uM • 15. PBMC+LPS (5 ug/ml)+YY-101 100 uM • 16. PBMC+LPS (5 ug/ml)+YY-101 10 uM • 17. PBMC+LPS (5 ug/ml)+YY-101 1 uM • 18. PBMC+LPS (5 ug/ml)+YY-101 0.1 uM • 19. PBMC+LPS (5 ug/ml)+YY-101 0.01 uM • 20. PBMC+LPS (5 ug/ml)+YY-101 0.001 uM • 21. PBMC+LPS (5 ug/ml)+YDE-011 100 uM • 22. PBMC+LPS (5 ug/ml)+YDE-011 10 uM • 23. PBMC+LPS (5 ug/ml)+YDE-011 1 uM • 24. PBMC+LPS (5 ug/ml)+YDE-011 0.1 uM • 25. PBMC+LPS (5 ug/ml)+YDE-011 0.01 uM • 26. PBMC+LPS (5 ug/ml)+YDE-011 0.001 uM • 27. PBMC+LPS (5 ug/ml)+YDE-043 100 uM • 28. PBMC+LPS (5 ug/ml)+YDE-043 10 uM • 29. PBMC+LPS (5 ug/ml)+YDE-043 1 uM • 30. PBMC+LPS (5 ug/ml)+YDE-043 0.1 uM • 31. PBMC+LPS (5 ug/ml)+YDE-043 0.01 uM • 32. PBMC+LPS (5 ug/ml)+YDE-043 0.001 uM
(§3) Multiplex assay was used to measure 30 cytokines and chemokines. The 1:2, 1:10 and 1:200 diluted cell supernatant and serial dilution of the standard were dispensed into a 96 well plate at 50 ul/well. Then, the pre-mixed cocktail of antibody-coated magnetic beads was dispensed at 50 ul/well and incubated at room temperature for 2 h in a horizontal orbital microplate shaker at 800±500 rpm. The beads were washed using a magnetic device to prevent loss. The biotin-antibody was dispensed in 50 ul of each well and incubated at room temperature for 1 h in a shaker at 800±500 rpm. After washing, streptavidin-PE was added at 50 ul/well and incubated at room temperature for 30 min in a shaker under the same conditions. Finally, after washing, wash buffer (100 ul/well) was added to the plate and incubated in a shaker for 2 min. The Luminex™ 200 setting were set according to the manufacturer's protocol. The data was calculated with a standard five-parameter logistic nonlinear regression analysis of the data (xPonent software 4.2, USA). The levels of cytokine/chemokine are normalized to the live cell counts (1×10^5 cells/mL) and presented as concentrations per mL (pg/mL or ng/mL).

IL-6 = assay: Example 9 Luminex, LPS hPBMCs: IL-6; type: cell-based, human; settings: Bead IL-6, PBMC + LPS(5 ug/ml)
Method: as §1, §2, §3

[1] = PBMC + LPS(5 ug/ml) + test article 0.001 uM, Mean
[2] = PBMC + LPS(5 ug/ml) + test article 0.001 uM, single replicates (1st, 2nd, 3rd)
[3] = PBMC + LPS(5 ug/ml) + test article 0.01 uM, Mean
[4] = PBMC + LPS(5 ug/ml) + test article 0.01 uM, single replicates (1st, 2nd, 3rd)
[5] = PBMC + LPS(5 ug/ml) + test article 0.1 uM, Mean
[6] = PBMC + LPS(5 ug/ml) + test article 0.1 uM, single replicates (1st, 2nd, 3rd)
[7] = PBMC + LPS(5 ug/ml) + test article 1 uM, Mean
[8] = PBMC + LPS(5 ug/ml) + test article 1 uM, single replicates (1st, 2nd, 3rd)
[9] = PBMC + LPS(5 ug/ml) + test article 10 uM, Mean
[10] = PBMC + LPS(5 ug/ml) + test article 10 uM, single replicates (1st, 2nd, 3rd)
[11] = PBMC + LPS(5 ug/ml) + test article 100 uM, Mean
[12] = PBMC + LPS(5 ug/ml) + test article 100 uM, single replicates (1st, 2nd, 3rd)

Structure (SMILES): CC(C)C[C@H](NC(=O)CNC(=O)[C@H](CC(C)C)NC(=O)[C@H](CCC(N)=O)NC(=O)CNC(=O)[C@@H]1C[C@@H](O)CN1)C(=O)N[C@@H](C)C(=O)NCC(=O)N1CCC[C@H]1C(=O)N[C@@H](CCCCN)C(=O)O [YDE-011] (H-[Hyp]GQLGLAGPK-OH)
- Concentration (IL-8; [1]): 26175.1 pg/mL
- conc/live cell (IL-8; [1]): 4943.8 pg/10^5
- Concentration (IL-8; [2]): 25949.1 pg/mL and 25243.2 pg/mL and 27333.0 pg/mL
- conc/live cell (IL-8; [2]): 5766.5 pg/10^5 and 4352.3 pg/10^5 and 4712.6 pg/10^5
- Concentration (IL-8; [3]): 27857.4 pg/mL
- conc/live cell (IL-8; [3]): 4784.6 pg/10^5
- Concentration (IL-8; [4]): 29106.4 pg/mL and 27148.3 pg/mL and 27317.6 pg/mL
- conc/live cell (IL-8; [4]): 4694.6 pg/10^5 and 5323.2 pg/10^5 and 4336.1 pg/10^5
- Concentration (IL-8; [5]): 25867.3 pg/mL
- conc/live cell (IL-8; [5]): 4548.1 pg/10^5
- Concentration (IL-8; [6]): 25672.8 pg/mL and 26225.6 pg/mL and 25703.5 pg/mL
- conc/live cell (IL-8; [6]): 3889.8 pg/10^5 and 5245.1 pg/10^5 and 4509.4 pg/10^5
- Concentration (IL-8; [7]): 25627.6 pg/mL
- conc/live cell (IL-8; [7]): 5106.9 pg/10^5
- Concentration (IL-8; [8]): 26271.7 pg/mL and 26379.3 pg/mL and 24231.7 pg/mL
- conc/live cell (IL-8; [8]): 4776.7 pg/10^5 and 5495.7 pg/10^5 and 5048.3 pg/10^5
- Concentration (IL-8; [9]): 25105.4 pg/mL
- conc/live cell (IL-8; [9]): 4765.2 pg/10^5
- Concentration (IL-8; [10]): 25626.7 pg/mL and 25335.2 pg/mL and 24354.2 pg/mL
- conc/live cell (IL-8; [10]): 4745.7 pg/10^5 and 4368.1 pg/10^5 and 5181.8 pg/10^5
- Concentration (IL-8; [11]): 26038.5 pg/mL
- conc/live cell (IL-8; [11]): 4290.3 pg/10^5
- Concentration (IL-8; [12]): 27702.6 pg/mL and 26563.8 pg/mL and 23849.1 pg/mL
- conc/live cell (IL-8; [12]): 4541.4 pg/10^5 and 4354.7 pg/10^5 and 3974.8 pg/10^5
- Concentration (IL-6; 0.001 uM, Mean): 6729.3 pg/mL
- MFI (IL-6; 0.001 uM, Mean): 186.6
- conc/live cell (IL-6; 0.001 uM, Mean): 1268.0 pg/10^5
- Concentration (IL-6; 0.001 uM, single replicates): 6493.4 pg/mL and 6683.4 pg/mL and 7011.0 pg/mL
- MFI (IL-6; 0.001 uM, single replicates): 179.8 and 185.3 and 194.8
- conc/live cell (IL-6; 0.001 uM, single replicates): 1443.0 pg/10^5 and 1152.3 pg/10^5 and 1208.8 pg/10^5
- Concentration (IL-6; 0.01 uM, Mean): 7097.0 pg/mL
- MFI (IL-6; 0.01 uM, Mean): 197.3
- conc/live cell (IL-6; 0.01 uM, Mean): 1218.8 pg/10^5
- Concentration (IL-6; 0.01 uM, single replicates): 7131.5 pg/mL and 6924.8 pg/mL and 7234.7 pg/mL
- MFI (IL-6; 0.01 uM, single replicates): 198.3 and 192.3 and 201.3
- conc/live cell (IL-6; 0.01 uM, single replicates): 1150.2 pg/10^5 and 1357.8 pg/10^5 and 1148.4 pg/10^5
- Concentration (IL-6; 0.1 uM, Mean): 6700.6 pg/mL
- MFI (IL-6; 0.1 uM, Mean): 185.8
- conc/live cell (IL-6; 0.1 uM, Mean): 1180.6 pg/10^5
- Concentration (IL-6; 0.1 uM, single replicates): 6458.9 pg/mL and 6907.6 pg/mL and 6735.2 pg/mL
- MFI (IL-6; 0.1 uM, single replicates): 178.8 and 191.8 and 186.8
- conc/live cell (IL-6; 0.1 uM, single replicates): 978.6 pg/10^5 and 1381.5 pg/10^5 and 1181.6 pg/10^5
- Concentration (IL-6; 1 uM, Mean): 6838.4 pg/mL
- MFI (IL-6; 1 uM, Mean): 189.8
- conc/live cell (IL-6; 1 uM, Mean): 1364.4 pg/10^5
- Concentration (IL-6; 1 uM, single replicates): 6821.4 pg/mL and 7217.5 pg/mL and 6476.2 pg/mL
- MFI (IL-6; 1 uM, single replicates): 189.3 and 200.8 and 179.3
- conc/live cell (IL-6; 1 uM, single replicates): 1240.3 pg/10^5 and 1503.6 pg/10^5 and 1349.2 pg/10^5
- Concentration (IL-6; 10 uM, Mean): 6769.7 pg/mL
- MFI (IL-6; 10 uM, Mean): 187.8
- conc/live cell (IL-6; 10 uM, Mean): 1286.9 pg/10^5
- Concentration (IL-6; 10 uM, single replicates): 6890.4 pg/mL and 6700.7 pg/mL and 6717.9 pg/mL
- MFI (IL-6; 10 uM, single replicates): 191.3 and 185.8 and 186.3
- conc/live cell (IL-6; 10 uM, single replicates): 1276.0 pg/10^5 and 1155.3 pg/10^5 and 1429.3 pg/10^5
- Concentration (IL-6; 100 uM, Mean): 7572.5 pg/mL
- MFI (IL-6; 100 uM, Mean): 211.1
- conc/live cell (IL-6; 100 uM, Mean): 1247.9 pg/10^5
- Concentration (IL-6; 100 uM, single replicates): 7801.4 pg/mL and 7715.7 pg/mL and 7200.3 pg/mL
- MFI (IL-6; 100 uM, single replicates): 217.8 and 215.3 and 200.3
- conc/live cell (IL-6; 100 uM, single replicates): 1278.9 pg/10^5 and 1264.9 pg/10^5 and 1200.1 pg/10^5
